Assays:
p38α = p38α (Homo sapiens, UniProt Q16539); experiment: p38α/MK2 cascade assay; format: biochemical; conditions: Table 1; inhibitors preincubated with p38α for 40 minutes; phosphorylation of Hsp27 peptide by MK-2, Caliper LabChip 3000; read-out: p38a/MK2 Cascade 40 min Pre-Incuabtion (% Inhibition): IC50
How it was run: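 In a cascade format, p38α was preincubated 40 min with inhibitor (1000–0.05 nM) before adding 1 nM nonactive MK2 (54-400), 5 μM MgATP and 0.5 μM FITC-Hsp27 peptide. Reaction ran 60 min in HEPES pH 7.5 with MgCl2, DTT, 2% DMSO, then EDTA-quenched. Peptide phosphorylation was measured by Caliper mobility shift to give IC50.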

p38α, sequence (Q16539 whole entry): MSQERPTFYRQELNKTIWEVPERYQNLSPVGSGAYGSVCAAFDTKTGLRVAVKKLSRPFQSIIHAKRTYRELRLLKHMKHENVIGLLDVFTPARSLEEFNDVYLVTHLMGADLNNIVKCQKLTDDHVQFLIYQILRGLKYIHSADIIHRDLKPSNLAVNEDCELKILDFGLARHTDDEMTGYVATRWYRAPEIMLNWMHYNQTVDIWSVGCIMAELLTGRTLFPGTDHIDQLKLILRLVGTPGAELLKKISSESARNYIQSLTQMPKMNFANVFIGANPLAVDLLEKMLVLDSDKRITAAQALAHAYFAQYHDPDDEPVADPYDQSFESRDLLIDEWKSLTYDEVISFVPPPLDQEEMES

Row | IC50 (p38α) [nM] | melting point [°C] | Compound
1 | 2.5 | 192 to 193 | Cc1ccc(C(=O)NC(C)C(N)=O)cc1-n1c(C)cc(OCc2ccccc2CNC(=O)Nc2cc(C(C)(C)C)nn2-c2ccc(O)c(Cl)c2)c(Cl)c1=O (stereo in doubt) [Example 159, (R)-3-[4-(2-{3-[5-tert-butyl-2-(3-chloro-4-hydroxy-phenyl)-2H-pyrazol-3-yl]-ureidomethyl}-benzyloxy)-3-chloro-6-methyl-2-oxo-2H-pyridin-1-yl]-N-(1-carbamoyl-ethyl)-4-methyl-benzamide]
2 | 3.5 | 209 to 211 | CNC(=O)CNC(=O)c1ccc(C)c(-n2c(C)cc(OCc3ccccc3CNC(=O)Nc3cc(C(C)(C)C)nn3-c3ccc(O)c(Cl)c3)c(Cl)c2=O)c1 [Example 156, 3-[4-(2-{3-[5-tert-butyl-2-(3-chloro-4-hydroxy-phenyl)-2H-pyrazol-3-yl]-ureidomethyl}-benzyloxy)-3-chloro-6-methyl-2-oxo-2H-pyridin-1-yl]-4-methyl-N-methylcarbamoylmethyl-benzamide]
3 | 1.7 | 179 to 181 | CNC(=O)CNC(=O)c1ccc(C)c(-n2c(C)cc(OCc3ccccc3CNC(=O)Nc3cc(C(C)(C)C)nn3-c3ccc(Cl)c(O)c3)c(Cl)c2=O)c1 [Example 167, 3-[4-(2-{3-[5-tert-Butyl-2-(4-chloro-3-hydroxy-phenyl)-2H-pyrazol-3-yl]-ureidomethyl}-benzyloxy)-3-chloro-6-methyl-2-oxo-2H-pyridin-1-yl]-4-methyl-N-methylcarbamoylmethyl-benzamide]
4 | 1.4 | 158 to 160 | Cc1ccc(C(=O)NCCN(C)C)cc1-n1c(C)cc(OCc2ccc(F)cc2CNC(=O)Nc2cc(C(C)(C)C)nn2-c2cccc(OCCO)c2)c(Cl)c1=O [Example 178]
